Results on two compounds are retold here after patent US9446130B2, “BTK inhibitors” (MERCK SHARP & DOHME CORP., priority 2013, dated 2016).

A word on the IC50: it is the concentration at which inhibition is half-maximal.

The assay deals with BTK enzyme (hBTK, full-length recombinant) (Homo sapiens (Human), UniProt Q06187). Briefly: Btk enzyme activity assay, Method A: IMAP-FP. Format: biochemical. Particulars: 5 μM ATP, 60 minute compound & enzyme incubation. An excerpt: Inhibition of kinase activity can be measured using the Immobilized Metal Assay for Phosphochemicals (IMAP) assay. IMAP is a homogeneous fluorescence polarization (FP) assay based on affinity capture of phosphorylated peptide substrates. IMAP uses fluorescein-labeled peptide substrates that, upon phosphorylation by a protein kinase, bind to so-called IMAP nanoparticles, which are derivatized with trivalent metal complexes. Binding causes a change in the rate of the molecular motion of the peptide, and results in an increase in the FP value observed for the fluorescein label attached to the substrate peptide (Gaudet et al. A homogeneous fluorescence polarization assay adaptable for a range of protein serine/threonine and tyrosine kinases. J. Biomol. Screen (2003) 8, 164-175).
Chain of BTK enzyme (hBTK, full-length recombinant) (Q06187 whole entry): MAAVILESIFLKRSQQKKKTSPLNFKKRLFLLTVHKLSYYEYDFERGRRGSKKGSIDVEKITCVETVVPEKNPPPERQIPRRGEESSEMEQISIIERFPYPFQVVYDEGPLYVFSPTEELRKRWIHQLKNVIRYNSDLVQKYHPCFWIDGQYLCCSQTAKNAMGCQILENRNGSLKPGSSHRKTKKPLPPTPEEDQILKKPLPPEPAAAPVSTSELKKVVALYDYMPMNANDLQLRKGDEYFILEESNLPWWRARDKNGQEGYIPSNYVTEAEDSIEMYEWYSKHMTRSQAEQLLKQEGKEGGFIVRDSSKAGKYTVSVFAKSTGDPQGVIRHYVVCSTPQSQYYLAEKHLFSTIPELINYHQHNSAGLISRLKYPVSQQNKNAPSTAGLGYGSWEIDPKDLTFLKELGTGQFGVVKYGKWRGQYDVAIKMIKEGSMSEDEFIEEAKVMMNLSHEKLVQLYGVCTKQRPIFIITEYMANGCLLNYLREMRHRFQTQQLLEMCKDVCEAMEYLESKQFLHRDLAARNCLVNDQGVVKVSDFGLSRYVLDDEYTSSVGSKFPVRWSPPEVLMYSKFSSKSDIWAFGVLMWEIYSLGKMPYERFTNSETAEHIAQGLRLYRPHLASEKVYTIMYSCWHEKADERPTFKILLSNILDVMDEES
BTK enzymatic activity was determined in an IMAP-FP assay (Immobilized Metal ion Affinity-based fluorescence Polarization; Molecular Devices). […] Plates were read on Packard microplate reader after 60 minutes binding equilibration using Fluorescence Polarization protocol. Specifically, fluorescence at 535 nm is measured using emission filters oriented both parallel and perpendicular to the polarized excitation filter. This allows detection of changes in Fluorescence Polarization due to binding of the phosphorylated substrate peptide to the beads. […]

On to `Cn1ncc2c1CCCC2(O)c1nc(-c2ccc(C(=O)Nc3cc(C(F)(F)F)ccn3)cc2)c2c(N)nccn12` (centres unmarked) [Example 1, 4-(8-amino-3-(4-hydroxy-1-methyl-4,5,6,7-tetrahydro-1H-indazol-4-yl)imidazo[1,5-a]pyrazin-1-yl)-N-(4-(trifluoromethyl)pyridin-2-yl)benzamide], for which the half-inhibitory concentration (IC50) worked out at 7.2 nM. As to `CCn1ncc2c1CCCC2(O)c1nc(-c2ccc(C(=O)Nc3cc(C(F)(F)F)ccn3)cc2)c2c(N)nccn12` (centres unmarked) [Example 4, 4-(8-amino-3-(1-ethyl-4-hydroxy-4,5,6,7-tetrahydro-1H-indazol-4-yl)imidazo[1,5-a]pyrazin-1-yl)-N-(4-(trifluoromethyl)pyridin-2-yl)benzamide], the concentration for half-maximal inhibition (IC50) stood at 12 nM.
